Where two headings read alike, the source gives them in different places.
Legend:
[1] = target: T1, 14-3-3ζ:BAD-112-136F interactions (Homo sapiens, UniProt P63104); assay: BRET sensor screen for disruption of 14-3-3ζ-Rluc8:BAD-112-136F-mCitrine in living NIH-3T3 cells; assay type: cell-based, murine; parameters: inhibition: dose or concentration left out as unconfirmed; conditions: for inhibition at 20 µM / inhibition: NIH3T3, 3 h, read-out: BRET reduction on NIH-3T3
T1 construct: expressed in transfected cells; host or cells: NIH-3T3 fibroblasts, bi-directional pBI-CMV1 plasmid
T1 sequence (P63104 1-245): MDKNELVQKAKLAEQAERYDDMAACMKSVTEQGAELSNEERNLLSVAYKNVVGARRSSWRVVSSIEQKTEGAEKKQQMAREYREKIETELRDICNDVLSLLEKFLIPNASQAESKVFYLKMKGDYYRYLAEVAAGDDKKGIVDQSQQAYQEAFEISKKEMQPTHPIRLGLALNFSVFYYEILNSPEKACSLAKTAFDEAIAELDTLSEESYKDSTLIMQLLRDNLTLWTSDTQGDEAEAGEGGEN
Experimental: The Z’-score, which evaluates the robustness of an HTS assay readout, was calculated according to standard protocols. For the HTS, 384-well plates were coated with 100 μg/mL poly-L-ornithine (Sigma, Missouri, United States; #P3655) overnight at 37 °C, followed by rinsing with sterilized water. NIH-3T3 cells were transfected with the BRET sensor two days prior to experimentation, followed by replating onto the pre-coated 384-well plates at a density of 20,000 cells/well. After 24 h of incubation at 37 °C, growth media was replaced by Krebs buffer (pH 7.4).

NIH-3T3 cells = assay: Hoechst/propidium iodide cell death assay in NIH-3T3; assay type: cell-based; conditions: for cytotoxicity at 20 µM: Mus musculus, NIH3T3, 24 h, read-out: Percentage of cell death % 24h NIH3t3
From the text: (§1) A high-content imaging system (PerkinElmer; Operetta CLS), was used to quantify cell death and apoptosis by calculating the number of propidium iodide-positive cells relative to Hoechst-positive cells, and the number of Annexin V-positive cells relative to Hoechst-positive cells, respectively.

HT-29 cells = assay: Hoechst/propidium iodide cell death assay in HT-29; assay type: cell-based, human; conditions: Homo sapiens
From the text: as §1

[2] = NIH-3T3 cells, hits from the primary screen
[3] = HT-29, 24 h, read-out: Percentage of cell death % 24h HT-29
[4] = HT-29, 48 h, read-out: Percentage of cell death % 48h, HT-29
[5] = NIH-3T3 expressing BRET sensor, 20 µM, 3 h
[6] = HT-29, 24 h, 20 µM, 24 h, read-out: Percentage of cell death % 24h HT-29
[7] = HT-29, 48 h, HT-29, 48h, 20 μM, read-out: Percentage of cell death % 48h, HT-29

| Compound | inhibition at 20 µM [1] [%] | BRET reduction on NIH-3T3 [1, 2] | cytotoxicity at 20 µM (NIH-3T3 cells) [%] | Percentage of cell death % 48h, NIH3T3 (NIH-3T3 cells) [%] | cytotoxicity at 20 µM (HT-29 cells; [3]) [%] | cytotoxicity at 20 µM (HT-29 cells; [4]) [%] | inhibition [1, 2] [%] | inhibition at 20 µM [1, 5] [%] | cytotoxicity at 20 µM (NIH-3T3 cells; 20 µM, 24 h) [%] | cytotoxicity at 20 µM (HT-29 cells; [6]) [%] | cytotoxicity at 20 µM (HT-29 cells; [7]) [%] |
| --- | --- | --- | --- | --- | --- | --- | --- | --- | --- | --- | --- |
| COc1cc(C)c(/C=C/C(C)=C/C=C/C(C)=C/C(=O)O)c(C)c1C [Acitretin] | 31.9 | 31.8517 | 0.791 | 1.816 | 0.862 | 1.82 | – | – | – | – | – |
| C[C@@H](O[C@H]1OCCN(Cc2n[nH]c(=O)[nH]2)[C@H]1c1ccc(F)cc1)c1cc(C(F)(F)F)cc(C(F)(F)F)c1 [Aprepitant] | – | – | – | 2.577 | – | – | 26.6 | 26.6 | 1.15 | 1.47 | 3.76 |
| C=C[C@@H]1C[C@]1(NC(=O)[C@@H]1C[C@@H](Oc2ncc(OC)c3ccc(Cl)cc23)CN1C(=O)[C@@H](NC(=O)OC(C)(C)C)C(C)(C)C)C(=O)NS(=O)(=O)C1CC1 [Asunaprevir (BMS-650032), Asunaprevir] | – | – | – | 2.12 | – | – | 41.4 | 41.4 | 3.04 | 1.15 | 3.86 |
| CC(C)(C)CC(C)(C)c1ccc(OCCOCC[N+](C)(C)Cc2ccccc2)cc1 [Benzethonium Chloride] | – | – | 51.9 | 51.9198 | 43.5 | 90.4 | – | – | – | – | – |
| C=C(c1ccc(C(=O)O)cc1)c1cc2c(cc1C)C(C)(C)CCC2(C)C [Bexarotene] | – | – | – | 2.3561 | – | – | 29.5 | 29.5 | 3.81 | 0.535 | 4.19 |
| c1ccc(-c2ccc(C(c3ccccc3)n3ccnc3)cc2)cc1 (centres unmarked) [Bifonazole] | – | – | – | 0.5325 | – | – | 32.1 | 32.1 | 0.428 | 1.45 | 2.62 |
| CCN1CCN(c2cc(-c3ccc(F)cc3)c3c(n2)CCCCCC3)CC1 [Blonanserin] | – | – | – | 1.273 | – | – | 25.1 | 25.1 | 1.45 | 2.57 | 15.5 |
| Clc1ccc(CCC(Cn2ccnc2)Sc2c(Cl)cccc2Cl)cc1 (centres unmarked) [Butoconazole nitrate] | – | – | – | 1.36 | – | – | 45.1 | 45.1 | 1.23 | 1.75 | 3.36 |
| C=C1/C(=C\C=C2/CCC[C@]3(C)[C@@H]([C@H](C)/C=C/[C@@H](O)C4CC4)CC[C@@H]23)C[C@@H](O)C[C@@H]1O [Calcipotriol] | – | – | – | 2.028 | – | – | 31.7 | 31.7 | 0.552 | 0.559 | 0.922 |
| C=C1/C(=C\C=C2/CCC[C@]3(C)[C@@H]([C@H](C)CCCC(C)(C)O)CC[C@@H]23)C[C@@H](O)C[C@@H]1O [Calcitriol] | – | – | – | 1.321 | – | – | – | – | 1.56 | 0.461 | 0.982 |
| CCOc1nc2cccc(C(=O)OC(C)OC(=O)OC3CCCCC3)c2n1Cc1ccc(-c2ccccc2-c2nnn[nH]2)cc1 (centres unmarked) [Candesartan Cilexetil] | – | – | – | 2.478 | – | – | 44.9 | 44.9 | 12.2 | 1.16 | 1.91 |
| COc1cc2c(Oc3ccc4[nH]c(C)cc4c3F)ncnc2cc1OCCCN1CCCC1 [Cediranib (AZD217), Cediranib] | – | – | – | 55.3041 | – | – | 39.9 | 39.9 | 76.9 | 11.9 | 83.5 |
| C[C@H](CCC(=O)O)[C@H]1CC[C@H]2[C@@H]3[C@H](O)C[C@@H]4C[C@H](O)CC[C@]4(C)[C@H]3CC[C@]12C [Chenodeoxycholic Acid] | – | – | – | 0.2284 | – | – | 31.3 | 31.3 | 0.372 | 1.21 | 2.27 |

From publication PMC12603070, “A high-throughput screening approach to discover potential colorectal cancer chemotherapeutics: repurposing drugs to identify novel disruptors of 14-3-3 proteins” (Cell Death & Disease, 2025)
